Here are results for four compounds from patent publication US12152057B2, “Fusion proteins for inhibiting angiogenesis” (priority 2015, dated 2024).

Assay [1] addresses integrin αvβ3 (Homo sapiens, UniProt P05106+P06756). Nature of the assay: Competitive binding ELISA of soluble integrin αvβ3 to vitronectin. Particulars: vitronectin-coated plate. How it is done:
The competitive binding was used to measure the binding affinity of Fusion Protein 1 of the invention to integrin αvβ3.
1 μg/mL victronectin dissolved in coating solution were added to each well of a 96-well ELISA plate, and the plate was incubated overnight at 4° C. The wells were washed twice with PBS buffer, and excess liquid was carefully removed with a paper towel.
Blocking solution (5 g non-fat skim milk in 100 mL 1×PBS) were added to each well, and the plate was incubated at room temperature for 1 hour. The wells were washed twice with 1×PBS buffer.
One hundred microliters […] of the serially diluted samples were added to each well. The plate was covered and incubated on a plate shaker (˜100 rpm) for 1 hour at room temperature. The wells were washed three times with wash buffer (1×PBS, 0.05% Tween-20).
Diluted primary anti-integrin αv antibody was added and incubated, then washed. Horseradish peroxidase-conjugated goat anti-human IgG Fc specific antibodies in blocking solution were added to each well. […]
The optical density (OD) of each well was determined using an ELISA plate reader at an absorbance wavelength of 450 nm. The absorbance was plotted against the protein concentration of the fusion protein or the control, and the concentration at which the signal was half the maximal inhibition concentration (IC50) was determined.

In assay [2] the test system is integrin αvβ3 (CHO-αvβ3 cells). In words: Adhesion of αvβ3-overexpressing CHO cells to fibrinogen. The class given is cell-based. Particulars: CHO-αvβ3 cell adhesion to fibrinogen. The protocol:
(§1) The adhesion of αvβ3-overexpressing CHO cells to fibrinogen and α5β1-expressing K562 cells to fibronectin were evaluated in the presence of fusion proteins.
(§2) 96-well Immulon-2 microtiter plates (Costar, Corning, NY) were coated with 100 μL of phosphate-buffered saline (PBS: 10 mM phosphate buffer, 0.15 M NaCl, pH 7.4) containing substrates at a concentration of 50-500 nM, and incubated overnight at 4° C. The substrates and their coating concentrations were fibrinogen (Fg) at 200 μg/mL and fibronectin (Fn) at 25 μg/mL. Non-specific protein binding sites were blocked by incubating each well with 200 μL of heat-denatured 1% bovine serum albumin (BSA) (Calbiochem) at room temperature for 1.5 hours. The heat-denatured BSA was discarded and each well was washed twice with 200 μL of PBS.
(§3) CHO cells that expressed the integrin αvβ3 (CHO-αvβ3) from the same source of Patent Application No. PCT/US2015/46322 were maintained in DMEM. Human erythroleukemia K562 was maintained as written in Patent Application No. PCT/US2015/46322 from ATCC and cultured in Roswell Park Memorial Institute (RPMI)-1640 medium containing 5% FCS. […] Bound cells were quantified by crystal violet staining. […] The resulting absorbance was read at 600 nm and the readings were correlated with the number of adhering cells. […]

For assay [3], the target named is T1, integrin α5β1 (K562 cells) (Homo sapiens, UniProt P05556+P08648).
T1 construct: α5β1-expressing K562 cells to fibronectin; host or cells: K562 human erythroleukemia cells
T1 sequence (P08648 42-894 limits assumed): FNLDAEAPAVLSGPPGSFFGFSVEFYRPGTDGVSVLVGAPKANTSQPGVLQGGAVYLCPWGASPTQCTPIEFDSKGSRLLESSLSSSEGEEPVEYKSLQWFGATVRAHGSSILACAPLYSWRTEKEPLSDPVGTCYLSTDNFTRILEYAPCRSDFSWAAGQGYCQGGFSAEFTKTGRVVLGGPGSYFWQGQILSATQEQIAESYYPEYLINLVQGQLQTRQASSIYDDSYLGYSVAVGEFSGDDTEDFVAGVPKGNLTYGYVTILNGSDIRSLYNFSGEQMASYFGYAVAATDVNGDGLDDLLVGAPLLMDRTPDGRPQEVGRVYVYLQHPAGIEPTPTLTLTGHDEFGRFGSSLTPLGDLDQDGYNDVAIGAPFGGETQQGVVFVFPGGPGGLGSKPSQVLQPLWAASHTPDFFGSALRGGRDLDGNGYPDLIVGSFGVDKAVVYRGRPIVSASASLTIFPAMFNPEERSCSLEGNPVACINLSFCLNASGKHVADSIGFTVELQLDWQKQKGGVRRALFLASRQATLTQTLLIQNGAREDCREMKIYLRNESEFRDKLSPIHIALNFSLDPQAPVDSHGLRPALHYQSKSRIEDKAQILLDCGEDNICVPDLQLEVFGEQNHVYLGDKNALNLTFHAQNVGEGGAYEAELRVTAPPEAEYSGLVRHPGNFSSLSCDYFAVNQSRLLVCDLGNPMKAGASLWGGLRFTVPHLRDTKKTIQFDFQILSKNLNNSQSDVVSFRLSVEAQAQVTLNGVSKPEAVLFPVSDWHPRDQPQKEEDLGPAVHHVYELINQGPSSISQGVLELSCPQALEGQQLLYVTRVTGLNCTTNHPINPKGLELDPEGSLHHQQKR
T1 sequence (P08648 895-1049 limits assumed): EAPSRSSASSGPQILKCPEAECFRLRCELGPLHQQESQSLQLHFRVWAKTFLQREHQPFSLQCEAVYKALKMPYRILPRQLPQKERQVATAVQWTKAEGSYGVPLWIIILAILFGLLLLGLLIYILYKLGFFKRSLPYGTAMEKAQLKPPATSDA
T1 sequence (P05556 21-798): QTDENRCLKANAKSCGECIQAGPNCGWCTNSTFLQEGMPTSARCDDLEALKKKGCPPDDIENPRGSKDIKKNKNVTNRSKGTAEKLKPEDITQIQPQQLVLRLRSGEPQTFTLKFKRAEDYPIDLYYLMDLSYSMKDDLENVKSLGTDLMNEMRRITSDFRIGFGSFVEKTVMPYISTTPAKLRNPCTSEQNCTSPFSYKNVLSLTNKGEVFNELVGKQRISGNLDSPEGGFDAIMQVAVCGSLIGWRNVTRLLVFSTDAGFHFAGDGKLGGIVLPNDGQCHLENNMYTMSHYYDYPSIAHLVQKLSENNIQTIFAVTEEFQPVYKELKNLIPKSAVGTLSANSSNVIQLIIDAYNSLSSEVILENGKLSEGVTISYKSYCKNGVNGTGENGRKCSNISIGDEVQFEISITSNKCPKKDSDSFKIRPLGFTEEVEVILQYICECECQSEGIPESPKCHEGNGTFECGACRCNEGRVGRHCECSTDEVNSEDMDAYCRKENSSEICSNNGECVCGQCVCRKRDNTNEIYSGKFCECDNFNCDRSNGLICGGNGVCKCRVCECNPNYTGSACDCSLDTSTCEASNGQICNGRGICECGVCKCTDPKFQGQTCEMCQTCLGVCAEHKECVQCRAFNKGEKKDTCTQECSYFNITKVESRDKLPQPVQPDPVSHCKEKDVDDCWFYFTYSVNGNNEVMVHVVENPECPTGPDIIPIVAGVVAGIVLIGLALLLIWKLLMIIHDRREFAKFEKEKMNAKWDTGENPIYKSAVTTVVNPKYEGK
Nature of the assay: Adhesion of α5β1-expressing K562 cells to fibronectin. The format is cell-based. To be noted: K562 cell adhesion to fibronectin. How it is done:
as §1, §2, §3

For assay [4], the target named is T2, human VEGF165 (Homo sapiens, UniProt P15692).
T2 sequence (P15692 27-191 isoform P15692-4): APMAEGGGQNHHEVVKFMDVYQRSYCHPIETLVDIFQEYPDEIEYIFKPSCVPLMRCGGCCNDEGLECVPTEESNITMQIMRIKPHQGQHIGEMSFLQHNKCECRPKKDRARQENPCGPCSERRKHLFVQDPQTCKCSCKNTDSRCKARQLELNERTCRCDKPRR
Nature of the assay: Direct binding ELISA to human VEGF165. To be noted: coated VEGF165 1 μg/mL, read-out: EC50 (nM), binding affinity to VEGF165. The protocol:
A direct binding enzyme-linked immunosorbent assay (ELISA) was used to measure the binding affinity of fusion proteins of the invention to human VEGF165, a splice variant of VEGF-A.
100 μL of a coating solution (1 μg/mL VEGF165 in 1× phosphate buffered saline (PBS), pH 7.2) were added to each well of a 96-well ELISA plate, and the plate was incubated overnight at 4° C. The wells were washed twice with 400 μL of 1×PBS buffer, and excess liquid was carefully removed with a paper towel.
400 μL of a blocking solution (5 g non-fat skim milk in 100 mL 1×PBS) were added to each well, and the plate was incubated at room temperature for 1 hour. The wells were washed twice with 1×PBS buffer.
Fusion protein and control samples were serially diluted three-fold in blocking solution, with a highest protein concentration of 10 nM. 100 μL of the serially diluted samples were added to each well. The plate was covered and incubated on a plate shaker (˜100 rpm) for 1 hour at room temperature. The wells were washed three times with wash buffer (1×PBS, 0.05% Tween-20). […]
The optical density (OD) of each well was determined using an ELISA plate reader at an absorbance wavelength of 450 nm. The absorbance was plotted against the protein concentration of the fusion protein or the control, and the concentration at which the signal was half the maximal effective concentration (EC50) was determined.
(ELISA stands for enzyme-linked immunosorbent assay.)

Assay [5] concerns human umbilical vein endothelial cell (HUVEC). In words: VEGF165-induced HUVEC proliferation assay (MTS). To be noted: VEGF165 8 ng/mL, 72 hours, read-out: IC50 (nM), inhibition of cell proliferation. The format is cell-based. How it is done: A human umbilical vein endothelial cell (HUVEC) proliferation assay was carried out to test the functionality of the fusion proteins of the invention. A commercially available VEGF Trap, aflibercept (Eylea®, Regeneron), was included as Positive Control 2.
100 μL of a coating solution (1% gelatin in double distilled water) were added to each well of a 96-well ELISA plate, and the plate was incubated for 2 hours or overnight at 37° C. The wells were washed twice with 1×PBS buffer.
3500 counts of human umbilical vein endothelial cells in endothelial cell growth medium were added to each well, and the plate was incubated overnight at 37° C.
Fusion protein samples were diluted in assay buffer (Medium-199 1× Earle's Salts, 10% fetal bovine serum, 10 mM HEPES, lx antibiotic/antimycotic), with a highest protein concentration of 300 nM. The fusion protein samples were mixed with VEGF165 (8 ng/mL), and the mixtures were incubated overnight at room temperature. The wells were then washed with 200 μL of 1×PBS.
100 μL of the VEGF165/sample mixture were added to each well, and the plates were incubated for 72 hours at 37° C. with 5% CO2. […]
The OD of each well was determined using an ELISA plate reader at an absorbance wavelength of 490 nm. […]

Assay [6] deals with VEGF-induced leakage in Dutch Belted Rabbits. In words: VEGF-induced retinal leakage in Dutch Belted rabbits (Example 8). The format is in vivo. Particulars: FA scale 0 (normal) to 4 (severe). How it is done: Fusion proteins of the invention were tested in an in vivo model of vascular permeability to determine their efficacy in preventing vascular leakage. In this model, VEGF was intravitreally injected to the vitreous of rabbit eyes to induce uncontrolled retinal leakage. Aflibercept (Eylea®, Regeneron), a recombinant fusion protein consisting of portions of human VEGFR1 and VEGFR2 fused to the Fc portion of human IgG1, and bevacizumab (Avastin®, Roche), a recombinant humanized monoclonal antibody that blocks angiogenesis by inhibiting VEGF-A were included as Positive Controls 2 and 6, respectively.
Dutch Belted rabbits were anesthetized using isoflurane (3-5%), and their eyes were treated with ophthalmic Betadine solution. The rabbits' eyes were then washed with sterile saline, and lidocaine hydrochloride (2% injectable) or proparacaine (0.5%) was applied to the ocular surface.
On Day 1, Dutch Belted rabbits were intravitreally injected with fusion proteins of the invention, vehicle (negative) control, or reference (positive) controls at predetermined doses using a BD 300 μL insulin syringe (31 ga× 5/16 inch). […]
Signs of ocular irritation were scored using the Draize scoring system prior to fusion protein dosing, VEGF induction, and assessments. […]

The test system is the same in assay [7]. Nature of the assay: Dose-response VEGF-induced retinal leakage in Dutch Belted rabbits (Example 9). Particulars: FA scale 0 (normal) to 4 (severe). The format is in vivo. How it is done:
Fusion proteins of the invention were tested in an in vivo model of retinal vascular permeability at varying doses to determine their dose-response effectiveness in preventing vascular leakage. In this model, human VEGF165 was intravitreally injected to the vitreous of rabbit eyes to induce retinal leakage.
On Day 1, Dutch Belted rabbits were intravitreally injected with Fusion Protein 1 according to an embodiment of the invention at various doses, vehicle (negative) control, or reference (positive) controls. Vascular leakage was induced by injecting exogenous VEGF165 into the same eyes on Day 3.
FAs were conducted on all dosage groups 3 days after the VEGF-induction (Day 6) to assess leakiness and tortuosity using a scale from 0 (normal) to 4 (severe).
Signs of ocular irritation were scored using the Draize scoring system prior to fusion protein dosing, VEGF induction, and assessments. According to the Draize analysis, all of the rabbit eyes were normal prior to the initiation of dosing. […] There were no drug-related findings evident during the course of the study.

Assay [8] deals with HUVECs. Nature of the assay: HUVEC tube formation on matrigel. The format is cell-based. Particulars: Homo sapiens, 18-hour incubation, read-out: IC50 (μM), inhibition of tube formation. How it is done:
HUVECs (1.5×10^4 cells/well) were placed in a 96-well matrigel-coated plate. Six doses of Fusion Protein 1 (0.1 μM, 0.3 μM, 1 μM, 3 μM, 10 μM, and 30 μM) and vehicle were added to each well in growth media under an atmosphere of 5% CO2 at 37° C. After an 18-hour incubation period, morphology of the endothelial cell tubes, which resemble a capillary-like network, were evaluated by photomicroscopy. Disruption (anti-angiogenesis) of total tube length was measured from each photograph and determined relative to the vehicle control group. […] Suramin was used as an anti-angiogenic positive control (Positive Control 5) for all studies.

integrin αvβ3, sequence (P06756 31-889 limits assumed): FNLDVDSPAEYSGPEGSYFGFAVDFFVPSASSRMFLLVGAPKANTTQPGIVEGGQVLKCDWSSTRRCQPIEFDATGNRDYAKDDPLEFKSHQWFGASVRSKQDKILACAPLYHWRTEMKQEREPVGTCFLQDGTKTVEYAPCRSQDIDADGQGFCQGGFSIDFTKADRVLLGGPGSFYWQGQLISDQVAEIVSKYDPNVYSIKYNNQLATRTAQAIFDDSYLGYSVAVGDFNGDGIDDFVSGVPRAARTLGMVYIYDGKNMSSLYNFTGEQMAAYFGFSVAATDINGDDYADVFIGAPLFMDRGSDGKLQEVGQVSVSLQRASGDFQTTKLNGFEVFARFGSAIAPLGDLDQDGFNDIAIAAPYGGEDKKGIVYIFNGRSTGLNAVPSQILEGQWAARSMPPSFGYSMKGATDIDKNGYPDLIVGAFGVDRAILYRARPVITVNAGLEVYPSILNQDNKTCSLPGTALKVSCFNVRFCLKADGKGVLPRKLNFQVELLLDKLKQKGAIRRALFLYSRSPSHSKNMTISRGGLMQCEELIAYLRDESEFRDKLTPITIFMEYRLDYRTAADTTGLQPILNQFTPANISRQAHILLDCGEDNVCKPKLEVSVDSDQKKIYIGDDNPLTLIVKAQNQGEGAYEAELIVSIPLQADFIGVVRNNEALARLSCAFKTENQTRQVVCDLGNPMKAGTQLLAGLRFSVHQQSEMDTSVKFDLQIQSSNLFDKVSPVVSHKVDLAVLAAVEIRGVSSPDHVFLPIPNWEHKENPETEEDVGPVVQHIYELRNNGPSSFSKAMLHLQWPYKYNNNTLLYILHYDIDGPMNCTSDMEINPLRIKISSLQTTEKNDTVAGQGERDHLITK
integrin αvβ3, sequence (P06756 891-992 limits assumed): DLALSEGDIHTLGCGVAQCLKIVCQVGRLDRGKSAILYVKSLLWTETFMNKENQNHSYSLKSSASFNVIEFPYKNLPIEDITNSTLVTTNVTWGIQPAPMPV
integrin αvβ3, sequence (P05106 27-718 limits assumed): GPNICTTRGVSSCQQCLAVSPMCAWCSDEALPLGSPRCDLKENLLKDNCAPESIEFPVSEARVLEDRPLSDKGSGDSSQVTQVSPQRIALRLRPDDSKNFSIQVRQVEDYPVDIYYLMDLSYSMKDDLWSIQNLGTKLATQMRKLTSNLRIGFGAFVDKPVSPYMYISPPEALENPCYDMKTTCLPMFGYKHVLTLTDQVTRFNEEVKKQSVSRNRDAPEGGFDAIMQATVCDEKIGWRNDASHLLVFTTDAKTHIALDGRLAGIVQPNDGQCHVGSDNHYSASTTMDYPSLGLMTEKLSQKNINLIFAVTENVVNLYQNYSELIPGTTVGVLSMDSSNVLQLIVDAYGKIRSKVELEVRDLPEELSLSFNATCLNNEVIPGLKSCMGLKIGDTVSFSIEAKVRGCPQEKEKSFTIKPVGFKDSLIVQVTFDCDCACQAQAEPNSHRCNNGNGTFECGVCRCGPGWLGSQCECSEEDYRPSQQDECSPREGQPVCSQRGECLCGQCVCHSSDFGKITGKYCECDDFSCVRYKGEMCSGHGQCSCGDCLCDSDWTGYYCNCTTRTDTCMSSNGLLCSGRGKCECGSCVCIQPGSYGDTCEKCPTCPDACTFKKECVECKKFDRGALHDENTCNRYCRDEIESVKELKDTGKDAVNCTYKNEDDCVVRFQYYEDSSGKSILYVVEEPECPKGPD

Regarding Rhodostomin [Positive Control 3], the IC50 is 2.6 to 3.2 nM in assay [1], 24.7 nM in assay [2] and 252 nM in assay [3].
Regarding aflibercept [Positive Control 2], the concentration for a half-maximal effect (EC50) in assay [4] lay in the range of 0.088 to 0.195 nM. The IC50 in assay [5] lay within 0.026 to 0.136 nM. Also, the “Day 6 Mean Leakage Score” value in assay [6] (Example 8, intravitreal dose 625 μg) amounted to 0; in assay [7] (Example 9, intravitreal dose 625 μg), 0.
Consider bevacizumab [Positive Control 6], for which the “Day 6 Mean Leakage Score” value was 0.25 in assay [6] (Example 8, intravitreal dose 1250 μg) and 0.17 in assay [7] (Example 9, intravitreal dose 1250 μg).
Turning to `Cc1ccc(C(=O)Nc2ccc(S(=O)(=O)O)c3cc(S(=O)(=O)O)cc(S(=O)(=O)O)c23)cc1NC(=O)c1cccc(NC(=O)Nc2cccc(C(=O)Nc3cc(C(=O)Nc4ccc(S(=O)(=O)O)c5cc(S(=O)(=O)O)cc(S(=O)(=O)O)c45)ccc3C)c2)c1` [Positive Control 5, Suramin], the IC50 in assay [8] stood at 15.8 µM.

In general, EC50 refers to the concentration needed to bring the measured effect to its halfway point.
